Several values for one entry are separate records, joined by “and”; a condition that tells them apart may be missing. Equal entries are not always repeated.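 Following 48 hours of exposure in 96-well plates, responses at five concentrations were used to interpolate endpoints linearly. The concentration for 50% growth inhibition is given as GI50.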 Activity calls are given as the source filed them. No stated cut-off is given here; in the data, active = GI50 up to about 1.1 µM and inactive = higher. Where a SMILES comes first, the peptide text is derived from it. [ ]: non-standard residue; d: D form. The star is where a group is joined. ξ: configuration not given here. ξD = NC(CC(=O)O)C(=O)O; Boc = CC(C)(C)OC(=O)*; Aib = CC(C)(N)C(=O)O; OtBu = CC(C)(C)O*
How the values were obtained:
Assay in all cases: NCI anticancer screen, dose series, 48 h
HOP-62 = tested on: HOP-62
KM12 = tested on: KM12
SW-620 = tested on: SW-620
OVCAR-8 = tested on: OVCAR-8
HT-29 = tested on: HT-29
HL-60 = tested on: HL-60
MDA-MB-435 = tested on: MDA-MB-435
NCI-H23 = tested on: NCI-H23
SK-MEL-28 = tested on: SK-MEL-28
HCT-116 = tested on: HCT-116
MDA-MB-231 = tested on: MDA-MB-231
SF-268 = tested on: SF-268
MDA-N = tested on: MDA-N
T47D = tested on: T47D
M14 = tested on: M14
IGROV-1 = tested on: IGROV-1
EKVX = tested on: EKVX
SK-MEL-2 = tested on: SK-MEL-2
ACHN = tested on: ACHN
RPMI-8226 = tested on: RPMI-8226

Measured: GI50

Cc1cccc2c1Oc1cc(Cl)ccc1C2NC(=O)CCN1CCN(CCO)CC1 (centres undefined)
inactive: HOP-62 17.2 µM | KM12 3.55 µM | SW-620 18.3 µM | OVCAR-8 13.4 µM | HT-29 15 µM | HL-60 9.46 µM | MDA-MB-435 14 µM | NCI-H23 23.1 µM | SK-MEL-28 3.13 µM | HCT-116 18.6 µM | MDA-MB-231 3.69 µM | SF-268 23.3 µM | MDA-N 4.25 µM | T47D 17.4 µM | M14 15.5 µM | IGROV-1 22.1 µM | EKVX 20.8 µM

Cc1cn(C2CCC(/C=N\O)O2)c(=O)[nH]c1=O (centres undefined)
inactive: HOP-62 > 100 µM | SK-MEL-2 > 100 µM | KM12 > 100 µM | SW-620 > 100 µM | OVCAR-8 > 100 µM | HT-29 > 100 µM | MDA-MB-435 > 100 µM | NCI-H23 > 100 µM | SK-MEL-28 > 100 µM | HCT-116 > 100 µM | MDA-MB-231 > 100 µM | ACHN > 100 µM | MDA-N > 100 µM | RPMI-8226 > 100 µM | T47D > 100 µM | M14 > 100 µM | IGROV-1 > 100 µM | EKVX > 100 µM

COC(=O)c1ccccc1/C=C1/Cc2ccccc2C1=O
inactive: HOP-62 98.4 µM | KM12 25.2 µM | SW-620 28.3 µM | OVCAR-8 47.1 µM | HT-29 37.9 µM | HL-60 30.1 µM | MDA-MB-435 > 100 µM | NCI-H23 68.4 µM | SK-MEL-28 65.5 µM | HCT-116 24.4 µM | MDA-MB-231 44.7 µM | ACHN 39.2 µM | SF-268 > 100 µM | MDA-N 55.8 µM | RPMI-8226 22 µM | T47D 19.6 µM | IGROV-1 27.3 µM | EKVX 63.2 µM

CS(=O)(=O)c1ccc(NNc2cc(=O)[nH]c(=O)[nH]2)cc1
inactive: HOP-62 > 100 µM | SK-MEL-2 > 100 µM | KM12 > 100 µM | SW-620 > 100 µM | HT-29 > 100 µM | HL-60 52.7 µM | NCI-H23 > 100 µM | SK-MEL-28 > 100 µM | HCT-116 > 100 µM | MDA-MB-231 > 100 µM | ACHN > 100 µM | SF-268 > 100 µM | MDA-N > 100 µM | RPMI-8226 > 100 µM | T47D > 100 µM | M14 > 100 µM | IGROV-1 > 100 µM

CCOC(=O)c1cc(C2(OC)CCN(Cc3ccccc3)C2=O)c(-c2cc(C)no2)[nH]1 (centres undefined)
inactive: HOP-62 > 100 µM | SK-MEL-2 > 100 µM | KM12 > 100 µM | SW-620 > 100 µM | OVCAR-8 > 100 µM | HT-29 75.7 µM | MDA-MB-435 > 100 µM | NCI-H23 > 100 µM | SK-MEL-28 > 100 µM | HCT-116 > 100 µM | MDA-MB-231 > 100 µM | ACHN > 100 µM | SF-268 > 100 µM | MDA-N > 100 µM | RPMI-8226 > 100 µM | T47D > 100 µM | M14 > 100 µM | IGROV-1 > 100 µM | EKVX 93.1 µM

O=C(CSc1nnc(-c2ccccn2)s1)N/N=C/c1ccccc1
inactive: HOP-62 51.5 µM | SK-MEL-2 > 100 µM | KM12 > 100 µM | SW-620 > 100 µM | OVCAR-8 > 100 µM | HT-29 > 100 µM | MDA-MB-435 > 100 µM | NCI-H23 > 100 µM | SK-MEL-28 > 100 µM | HCT-116 > 100 µM | MDA-MB-231 > 100 µM | ACHN 89.3 µM | SF-268 48.9 µM | MDA-N > 100 µM | T47D 46.8 µM | M14 > 100 µM | IGROV-1 > 100 µM

COc1ccc(-c2c(C#N)c(N)n(C3OC(CO)C(O)C(O)C3O)c(=S)c2C#N)cc1 (centres undefined)
inactive: HOP-62 > 100 µM and 51.9 µM | SK-MEL-2 55.8 µM and 30.4 µM | KM12 > 100 µM | SW-620 > 100 µM and 73.1 µM | OVCAR-8 > 100 µM | HT-29 > 100 µM | HL-60 > 100 µM | NCI-H23 > 100 µM | SK-MEL-28 > 100 µM | HCT-116 > 100 µM | MDA-MB-231 > 100 µM | ACHN 87.9 µM and 97.3 µM | SF-268 > 100 µM | MDA-N > 100 µM | RPMI-8226 > 100 µM | T47D > 100 µM and 93.3 µM | M14 > 100 µM | IGROV-1 72.1 µM | EKVX 66.2 µM

O=[N+]([O-])c1cccc(/N=N/c2c(O)ccc3ccccc23)c1
inactive: HOP-62 35 µM | SK-MEL-2 50.4 µM | KM12 42.4 µM | SW-620 57 µM | OVCAR-8 > 100 µM | HT-29 > 100 µM | MDA-MB-435 39.1 µM | NCI-H23 70.8 µM | SK-MEL-28 90.4 µM | HCT-116 > 100 µM | MDA-MB-231 56.4 µM | SF-268 51.4 µM | MDA-N 87.3 µM | RPMI-8226 54.2 µM | T47D > 100 µM | M14 > 100 µM | IGROV-1 94.8 µM | EKVX 35.2 µM

CC(=O)OC(C)(C)CCC(=O)[C@](C)(O)[C@H]1[C@H](O)C[C@@]2(C)[C@@H]3CCc4c(cc(OC5OC(CO)C(O)C(O)C5O)c(O)c4C)C3(C)C(=O)C[C@]12C (some centres undefined)
inactive: HOP-62 > 100 µM | SK-MEL-2 > 100 µM | KM12 > 100 µM | SW-620 > 100 µM | OVCAR-8 > 100 µM | HT-29 > 100 µM | MDA-MB-435 > 100 µM | NCI-H23 > 100 µM | SK-MEL-28 > 100 µM | HCT-116 > 100 µM | MDA-MB-231 > 100 µM | ACHN > 100 µM | SF-268 > 100 µM | MDA-N > 100 µM | T47D > 100 µM | M14 > 100 µM | IGROV-1 > 100 µM | EKVX > 100 µM

c1cc(-c2sc(-c3ccncc3)c(-c3ccncc3)c2-c2ccncc2)ccn1
inactive: HOP-62 18.5 µM | SK-MEL-2 20.1 µM | KM12 26 µM | SW-620 17 µM | OVCAR-8 24.4 µM | HT-29 13.6 µM | MDA-MB-435 14.6 µM | NCI-H23 16.1 µM | SK-MEL-28 19.6 µM | HCT-116 12.9 µM | MDA-MB-231 15.1 µM | ACHN 14.8 µM | SF-268 15.2 µM | MDA-N 13.8 µM | RPMI-8226 33.9 µM | T47D 32.4 µM | M14 16.5 µM | IGROV-1 18.2 µM | EKVX 13.1 µM

COC(=O)C(C)(C)NC(=O)C(C)(C)NC(=O)C(CC(=O)OC(C)(C)C)NC(=O)OC(C)(C)C (centres undefined) (Boc-[ξD](OtBu)-[Aib]-[Aib]-OMe)
inactive: HOP-62 > 100 µM | SK-MEL-2 > 100 µM | KM12 > 100 µM | SW-620 > 100 µM | OVCAR-8 > 100 µM | HT-29 > 100 µM | MDA-MB-435 > 100 µM | NCI-H23 > 100 µM | SK-MEL-28 > 100 µM | HCT-116 > 100 µM | MDA-MB-231 > 100 µM | ACHN > 100 µM | SF-268 3.71 µM | MDA-N > 10 µM | RPMI-8226 > 100 µM | T47D > 100 µM | M14 > 100 µM | IGROV-1 > 100 µM | EKVX > 100 µM
